Tested on: BMDM, BMDC or AM cells
Test: Real time RT-PCR of type I IFN and other inflammatory response genes
Assay type: cell-based, C57BL/6 mouse
Conditions: 100 nM cGAMP, 4 h
Protocol: Real time RT-PCR of type I IFN and other inflammatory response genes induced by NP-cGAMP. BMDM, BMDC or AM cells […] were seeded into 6-well plates and cultured for 24 h. The cells were then incubated at 37° C. with free cGAMP or NP-cGAMP (100 nM cGAMP) suspended in complete culture medium for 4 h. All cellular RNA was collected using TRIzol reagent (Thermo Fisher). One microgram of total RNA was transcribed into cDNA using High-Capacity cDNA Reverse Transcription Kit (Thermo Fisher), and real-time quantitative PCR (qPCR) was performed using PowerUp SYBR Green Master Mix (Thermo Fisher) with primers for amplification of Gapdh, Ifnb1, Cxcl9, Cxcl10, Tnf, Il6, Il12b, Il1b, Ifna1, Il10, and Tgfb1 genes. mRNA levels were normalized against the housekeeping gene GAPDH.

In the case of Nc1nc2c(ncn2[C@@H]2O[C@@H]3COP(=O)(O)O[C@H]4[C@@H](O)[C@H](n5cnc6c(N)ncnc65)O[C@@H]4COP(=O)(O)O[C@@H]2[C@@H]3O)c(=O)[nH]1 [free cGAMP, cyclic [G(2′,5′)pA(3′,5′)p]], the “expression of Ifnb1, Ifna1 and other proinflammatory genes (Tnf, Il1b, Il6, Il12b, Cxcl9,10)” value is reported as “only a modest increase”.
